Results from PubChem BioAssay AID179 (DTP/NCI, 2004).
Values joined by “and” are separate entries in the source; they are usually repeats but may differ in a detail not shown here. Equal entries are not always repeated. Active and inactive are the calls of the source.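 The calls were made as follows: active = compounds giving half or more protection of infected cells from virus-caused growth loss, again on retest; inactive = the rest.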

Test system: CEM cells HIV-1 protection, formazan growth assay
Assay: NCI AIDS Antiviral Assay
Details: for IC50: measured here: growth of uninfected CEM cells
Method in brief: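 Screen of anti-HIV-1 activity in human CEM cells using a formazan-based growth measurement at five drug concentrations. Hits with 50% or greater protection were repeated, and confirmation required reproducible complete protection.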

Row | SMILES | EC50 | IC50 | outcome
1 | CC1C=C(CCCCCCCCCCCC[C@@H](O)[C@@H]2CC[C@@H]([C@@H]3CC[C@@H](C(O)CCCCCCCCCCCCC4=C[C@H](C)OC4=O)O3)O2)C(=O)O1 (stereo partly drawn) | > 200 µM | 0.204 µM | 
2 | Clc1ccc(C2=CC(c3ccccc3)N3C(=N[C@H]4CCCC[C@@H]43)N2)cc1 (stereo partly drawn) | > 100 µM | 4.68 µM | 
3 | O=C(O)c1nn(-c2ccccc2)nc1-c1nn(-c2ccccc2)nc1C(=O)O | > 200 µM | > 200 µM | 
4 | NCCCCC(NC(=O)C(N)Cc1ccc(O)cn1)C(=O)O (stereo not drawn) | > 200 µM | > 200 µM | 
5 | COc1ccc2[nH]c(=O)c(C(C)=O)c(O)c2c1 | > 200 µM | > 200 µM | 
6 | O=c1c2cccnc2[nH]c2ccc3[nH]ncc3c12 | > 200 µM | 50.1 µM | 
7 | COc1cccc(C2c3cc4c(cc3OC(NNS(=O)(=O)c3ccc(C)cc3)C2C)OCO4)c1O (stereo not drawn) | > 200 µM | 10.5 µM | 
8 | CN(C)CCCNC(=O)c1cc(NC(=O)c2cc(NC(=O)c3cc(NC(=O)c4ccccc4C(=O)O)cn3C)cn2C)cn1C | > 200 µM | > 200 µM | 
9 | Nc1cccc(Nc2nc3ccccc3nc2NS(=O)(=O)c2ccccc2)c1 | > 200 µM | 51.3 µM | 
10 | CSC1NC(c2ccccc2)=C(C#N)C(=O)N1C1OCC(OC(C)=O)C(OC(C)=O)C1OC(C)=O (stereo not drawn) | > 200 µM | 148 µM | 
11 | C(=C(c1ccccc1)c1ccccc1)=C(c1ccccc1)c1ccccc1 | > 28.8 µM | > 28.8 µM | 
12 | COc1cc(-c2oc3cc(OC)c(OC)c(OC)c3c(=O)c2OC)cc(OC)c1OC | > 200 µM | 26.3 µM | 
13 | CC(=O)Nc1nc(C#N)[nH]c1C#N | > 200 µM | > 200 µM | 
14 | CC1=C(/C=C/C(C)=C/C2CC(N(C)C)=CC(=O)O2)C(C)(C)CCC1 (stereo not drawn) |  |  | inactive
15 | N#CC12C(=O)NC(=O)C1(C#N)C1C=CC2CC1 (stereo not drawn) | > 200 µM | > 200 µM | 
16 | CC(C)(C)C1=CC(=NC(=O)c2cc([N+](=O)[O-])cc([N+](=O)[O-])c2)C=C(C(C)(C)C)C1=O | > 6.03 µM | > 6.03 µM | 
17 | Cn1nc(-c2ccccc2)c2c(/C=C/c3ccc(F)cc3)onc2c1=O | > 38.9 µM | > 38.9 µM | 
18 | COc1ccc(C(=C(I)c2ccccc2)c2ccc(OC)cc2)cc1 | > 200 µM | 182 µM | 
19 | CCOc1ccc(/C=C2/C(=O)N=C(N)N=C2N)cc1OCC |  |  | inactive
20 | COc1ccc(/C=C2/CCS(=O)(=O)c3ccc(C)cc3C2=O)cc1OC | > 200 µM | 6.03 µM | 
21 | O=S(=O)(Nc1ccccc1Cl)c1ccccc1 | > 200 µM | 83.2 µM | 
22 | OCc1ccc[n+](CCc2c[nH]c3ccccc23)c1 | > 759 µM | 316 µM | 

Row | SMILES | EC50 | IC50 | outcome
23 | CCN(CC)CCSc1nc2c([N+](=O)[O-])cccc2[nH]1 |  |  | inactive
24 | C/C(=C\c1ccccc1)C(O)C(=O)c1nc2ccc(Cl)cc2[nH]c1=O (stereo not drawn) | > 708 µM | 33.9 µM | 
25 | O=C(NC/C(Br)=C/Br)Nc1cccc2ccccc12 | 148 µM | > 200 µM | 
26 | CN(C)CCN1N=Nc2cccc3cccc1c23 |  |  | inactive
27 | CC1(C)CCC2=C(O1)C(=O)c1ccccc1C2=O | > 200 µM | 18.2 µM and 14.5 µM | 
28 | Cc1ccc(Cc2nn(C)c(=O)n2-n2cccc2)cc1 | > 200 µM | 102 µM | 
29 | C/C(=N\Nc1ccc([N+](=O)[O-])cc1)C(=O)N(C)Nc1ccccc1 |  |  | inactive
30 | S=C1NCCN1C(=S)Nc1ccccc1 | > 141 µM | > 141 µM | 
31 | CC(C)(C)C1(C#N)C(=O)N(c2ccc(Cl)cc2)C12c1ccccc1-c1ccccc12 (stereo not drawn) | > 9.12 µM | > 9.12 µM | 
32 | COc1cc(C)cc2c1OC(c1ccccc1)CC2=O (stereo not drawn) | > 200 µM | 52.5 µM | 
33 | CCOC(=O)/C(=C\c1ccc(Cl)cc1)[Se]c1ccccc1 | > 97.7 µM | > 97.7 µM | 
34 | Cc1nn(C(=O)c2ccncc2)c2c1C(c1ccccc1)SC(N)=N2 (stereo not drawn) | 28.2 µM | > 100 µM | 
35 | COC(=O)C(Cc1ccccc1)NC(=O)Cn1ccnc1[N+](=O)[O-] (stereo not drawn) | > 759 µM | 132 µM | 
36 | COc1ccc2c(c1)c1ccc3c(c1n2C)C(=O)C=CC3=O | > 89.1 µM | 2.95 µM | 
37 | O=C(O)c1cc(CNc2ccc(/C=C/c3ccc(NCc4ccc(O)c(C(=O)O)c4)cc3S(=O)(=O)O)c(S(=O)(=O)O)c2)ccc1O | 102 µM | 263 µM | 
38 | O=C(Nc1ccc(Cl)c(C(F)(F)F)c1)C(=O)c1c(O)c2ccccc2oc1=O | > 229 µM | 191 µM | 
39 | O=c1c(F)cn2c(=O)n1CCCCCCCn1c(=O)c(F)cn(c1=O)CCCCCCC2 | > 200 µM | 155 µM | 
40 | Cc1ccc(/C=C/C(=O)c2c([O-])on[n+]2-c2ccccc2)cc1 | > 200 µM | 2.63 µM | 
41 | Nc1ccc(C(=O)N/C(=C\C=C\c2ccco2)c2nc3[nH]c(=S)[nH]c(=O)c3[nH]2)cc1 |  |  | inactive
42 | COC(=O)C1=C(C(=O)OC)C2C(C)=CC(C)=CN2C(C(=O)OC)=C1C(=O)OC (stereo not drawn) | > 200 µM | > 200 µM | 
43 | COc1ccc(/C=C\c2cc(OC)c(OC)c(OC)c2)cc1OCC(=O)O |  |  | inactive
44 | O=C(/C=C/c1ccc(Br)cc1)c1ccccc1 | > 18.2 µM | 9.55 µM | 

Row | SMILES | EC50 | IC50 | outcome
45 | O=C1CN(c2ccccc2)CC(=O)N2Cc3ccccc3CN12 | > 44.7 µM | > 44.7 µM | 
46 | C=CC1(CC[C@]2(c3ccc(OC)c(OC)c3)C=[N+]([O-])O[C@H](O[C@@H]3CCCC[C@H]3C(C)(C)c3ccccc3)C2)OCC(C)(C)CO1 | > 200 µM | 11.2 µM | 
47 | O=C(Nn1cnn2c(=O)c3ccccc3nc2c1=O)c1ccccc1 | > 200 µM | > 200 µM | 
48 | CCCNC(=O)NS(=O)(=O)c1ccc(Cl)cc1 |  |  | inactive
49 | O=[N+]([O-])C(=C(\Cl)NCCO)/C(Cl)=C(/Cl)Br | > 20 µM | 1 µM | 
50 | O=C(O)c1c2ccccc2nc2[nH]c(=O)[nH]c(=O)c12 |  | 141 µM | inactive
51 | CC(C)C(Sc1nc(-c2ccccc2)c(-c2ccccc2)[nH]1)c1n[nH]c(=S)n1-c1ccccc1 (stereo not drawn) | > 14.8 µM | 7.08 µM | 
52 | CC(C)(C)OC(=O)NCCc1ccc(N)cc1 | > 200 µM | 158 µM | 
53 | CCCCCCCCCCCCCCCCCCNC(=S)NC=C(C(N)=O)C(N)=O | > 100 µM | > 100 µM | 
54 | Cc1cn(CC(=O)NCCO)c(=O)[nH]c1=O | > 200 µM | > 200 µM | 
55 | CCOC(=O)c1c[nH]c2cc3c(cc2c1=O)CCS3 | > 200 µM | 115 µM | 
56 | Cc1ncc(C(N)=O)c2c1OC(C)(C)OC2 | > 200 µM | > 200 µM | 
57 | COC(=O)C(Cc1ccccc1)NS(=O)(=O)c1ccc(-c2c3nc(c(-c4ccc(S(=O)(=O)NC(Cc5ccccc5)C(=O)OC)cc4)c4ccc([nH]4)c(-c4ccc(S(=O)(=O)NC(Cc5ccccc5)C(=O)OC)cc4)c4nc(c(-c5ccc(S(=O)(=O)NC(Cc6ccccc6)C(=O)OC)cc5)c5ccc2[nH]5)C=C4)C=C3)cc1 (stereo not drawn) | > 126 µM | > 126 µM | 
58 | CCOC(=O)c1sc2c(c1OC(=O)c1ccco1)c(=O)n(-c1ccccc1)c(=S)n2-c1ccccc1 | > 200 µM | 8.32 µM | 
59 | CCOc1ccc(N=Nc2ccc3oc(=O)c(/C(C)=N\NC(=O)CC(=O)Nc4ccc(Cl)cc4)cc3c2)cc1 | > 13.2 µM | > 13.2 µM | 
60 | O=C(N=C1[Se]C(=Nc2ccccc2)C(=Nc2ccccc2)N1c1ccc(Cl)cc1)c1ccccc1 | > 100 µM | 89.1 µM | 
61 | C[C@]12CC[C@H]3[C@@H](C[C@@H](O)[C@]45C[C@@H]4CC[C@]35C)[C@@H]1CC[C@@]21C=CC(=O)O1 | > 200 µM | 95.5 µM | 
62 | CC1NS(=O)(=O)N(C)C1=O (stereo not drawn) |  |  | inactive
63 | COc1ccc(N=Nc2c(C)c(C#N)c(=S)n(C3OC(CO)C(O)C(O)C3O)c2C)cc1 (stereo not drawn) | > 200 µM | 27.5 µM | 
64 | CCCCCC=C(c1cc(C)c(OC)c(Br)c1)c1cc(C)c(OC)c(Br)c1 | > 200 µM | 15.5 µM | 
65 | CCOc1ncn(-c2ccc(NC(=S)NC34CC5CC(CC(C5)C3)C4)cc2)n1 | 12 µM | 67.6 µM | 
66 | C[C@@H](c1ccccc1)N(CC#N)[C@H]1CCC[C@]1(O)/C=C/c1ccc2c(c1)OCO2 | > 50.1 µM | > 50.1 µM | 

Row | SMILES | EC50 | IC50 | outcome
67 | Cc1cc(C)nc(NS(=O)(=O)c2ccc(Nc3c4ccccc4nc4c(C(=O)N5CCN(CCO)CC5)cccc34)cc2)n1 | > 36.3 µM | > 36.3 µM | 
68 | c1ccc(N2CC3CSc4ccc5ccccc5c4C3=N2)cc1 (stereo not drawn) | > 200 µM | > 200 µM | 
69 | Nc1ccc(Cc2c(N)[nH]c(=O)[nH]c2=O)cc1 | > 200 µM | > 200 µM | 
70 | CN=C1N[N+]2=CCSCC2(C)S1 (stereo not drawn) |  |  | inactive
71 | Cc1ccc(/C=C2\CCCCC2=O)cc1 |  |  | inactive
72 | COc1ccc(/C=C2\N=C(C)OC2=O)cc1 | > 437 µM | > 437 µM | 
73 | CNc1ccc(OC)cc1S(=O)(=O)c1ccccc1[N+](=O)[O-] | 148 µM | 182 µM | 
74 | CC(C)=C[C@@H]1C[C@H](n2cc(C)c(=O)[nH]c2=O)ON1CCOS(=O)(=O)c1ccc(C)cc1 | > 200 µM | 81.3 µM | 
75 | C=CCCCCCCCCC(=O)NCc1ccncc1 | > 200 µM | 97.7 µM | 
76 | Cc1nc(N)sc1C(=O)/C=C\c1ccc2c(c1)OCO2 | > 871 µM | 437 µM | 
77 | O=C(O)CS(=O)(=O)O | > 200 µM | > 200 µM | 
78 | COc1ccc2[nH]c(C(=O)N3CC(CCl)c4ccc(N)cc43)cc2c1 (stereo not drawn) | > 2 µM | 0.389 µM | 
79 | COC(=O)c1ccccc1C1CN=NC12Cc1cc3c(cc1C2=O)CCC3 (stereo not drawn) |  |  | inactive
80 | COC1(OC)CC2CCCCC2=C(C)N1S(=O)(=O)c1ccccc1 (stereo not drawn) |  |  | inactive
81 | CCOC(=O)c1cc(C2(OC)CCN(Cc3ccccc3)C2=O)c(-c2cc(C)no2)[nH]1 (stereo not drawn) | > 200 µM | 148 µM | 
82 | O=C(NNC(=O)c1ccccc1SSc1ccccc1C(=O)NNC(=O)c1ccccc1S)c1ccccc1S | 17.8 µM | 33.1 µM | 
83 | CCCC(=O)OCC1(Cl)CCC2c3c(c4ccccc4n3C)CC1N2Cc1ccccc1 (stereo not drawn) | > 11.5 µM | 6.92 µM | 
84 | Fc1ccc(C(=NCc2ccccc2)N2CCOCC2)cc1 | > 200 µM | > 200 µM | 
85 | COC(=O)Cc1cc(=O)n2c([nH]c3ccccc32)c1C#N | > 25.7 µM | > 25.7 µM | 
86 | COc1ccc2c(c1OC)C1N(C)CCc3cc4c(cc3C1(OC)C2=O)OCO4 (stereo not drawn) |  |  | inactive
